One assay addresses DmGPCR5 (Drosophila melanogaster, UniProt P30975, L70Q). Description: biochemical. The arrangement: expressed in transfected cells; host or cells: CHO-1000A (so in the source), transient. Conditions: DmGPCR5; given in words. How it is done:
(§1) The transfected cells were washed once with ice-cold Dulbecco's phosphate buffered saline (PBS), 5 ml per 10 cm plate, and scraped into 5 ml of the same buffer. Cell suspensions from multiple plates were combined and centrifuged at 500×g for 10 min at 4° C. The cell pellet was reconstituted in ice-cold TEE (25 mM TRIS, 5 mM EGTA, 5 mM EDTA). Convenient aliquots were snap-frozen in liquid nitrogen and stored at −70° C. After thawing, the cells were homogenized and centrifuged at 4° C., 500×g for 5 minutes to pellet nuclei and unbroken cells. The supernatant was centrifuged at 47,000×g for 30 minutes at 4° C. The membrane pellet was washed once with TEE, resuspended in 20 mM HEPES, pH 7.4, 100 mM NaCl, 10 mM MgCl2, 1 mM EDTA (assay buffer), aliquoted and frozen in liquid nitrogen. Membrane aliquots were stored at −70° C. Membrane protein concentration was determined using the BCA Protein Assay Reagent from Pierce (Rockford, Ill.) and BSA as standard.
Initially, reaction mixtures were prepared in 96-well polypropylene plates (Nunc). In each well, peptide aqueous solution (20 μl, 10×), or water controls (20 μl), 18.2 μM GDP in assay buffer (0.11 ml, 10 μM final), and membranes suspended in assay buffer (50 μl, 10 μg membrane protein) were mixed and placed on ice. […] Then the membranes were washed 3 times with 0.25 ml ice-cold wash buffer/well (10 mM HEPES, 10 mM MgCl2, pH 7.4) and vacuum filtered. […] Each treatment was carried out in triplicates.
Ligand-induced stimulation of [^35S]GTPγS binding was expressed as fold increase over the basal activity with no ligand added. Each treatment was run either in triplicate, or, on occasion, in duplicate, and the binding (cpm) was calculated as means +/− standard deviations. Dose-response curves for the receptor/ligand systems were analyzed using a non-linear least square SAS model, y=Bmax X/(Kd+X). Other dose-response curves were analyzed using Prism (GraphPad Software, Inc. San Diego, Calif.) and the following equation y=Bottom+(Top−Bottom)/(1+10^LogEC50-X).
(§2) Originally, we have chosen the GTPγS assay as a functional assay because agonist-driven stimulation of GTPγS reflects early events in the DmGPCR activation cascade, regardless of further activation pathways of various down-stream signaling events. This appears especially useful for the assessment of possible activation of orphan DmGPCRs with unknown functions and unknown signaling pathways. The GTPγS assay was carried out with membranes prepared from CHO cells transiently transfected with DNA encoding Drosophila GPCRs using a 96-well MultiScreen G/FB filter plates and a MultiScreen vacuum manifold (Millipore) for filtration. Since the GTPγS assay is known to poorly recognize GPCRs coupled to the Gq class of G-proteins, a Ca^+2 mobilization assay based on a FLIPR readout was used as well to evaluate Gq-coupled orphan GPCRs in CHO cells transiently transfected with DNA encoding Drosophila GPCRs.

For a further assay, the system named is DmGPCR9. Put plainly: calcium mobilization assay (FLIPR). The class given is cell-based, Drosophila melanogaster. Conditions: tested at 10 μM. How it is done:
(§3) Changes in intracellular calcium levels are another recognized indicator of G protein-coupled receptor activity, and such assays can be employed to screen for modulators of DmGPCR activity. For example, CHO cells stably transfected with a DmGPCR expression vector are plated at a density of 4×10^4 cells/well in Packard black-walled, 96-well plates specially designed to discriminate fluorescence signals emanating from the various wells on the plate. The cells are incubated for 60 minutes at 37° C. in modified Dulbecco's PBS (D-PBS) containing 36 mg/L pyruvate and 1 g/L glucose and one of four calcium indicator dyes (Fluo-3™ AM, Fluo-4™ AM, Calcium Green™-1 AM, or Oregon Green™ 488 BAPTA-1 AM), each at a concentration of 4 μM. […]
(§4) A calcium response is initiated by the addition of one or more candidate receptor agonist compounds, calcium ionophore A23187 (10 μM; positive control), or ATP (4 μM; positive control). Fluorescence is measured by Molecular Device's FLIPR with an argon laser (excitation at 488 nm). […] Basal fluorescence of cells was measured for 20 seconds prior to addition of candidate agonist, ATP, or A23187, and the basal fluorescence level was subtracted from the response signal. The calcium signal is measured for approximately 200 seconds, taking readings every two seconds. […]

For the next assay, the system named is DmGPCR7. Put plainly: FLIPR analysis of intracellular calcium release. Conditions: DmGPCR7 in CHO-10001A cells; peptides with C-terminal HSWGa; given in words. Type of assay: cell-based, Drosophila melanogaster. How it is done:
Changes in intracellular calcium levels are another recognized indicator of G protein-coupled receptor activity, and such assays can be employed to screen for modulators of DmGPCR activity. For example, CHO cells stably transfected with a DmGPCR expression vector are plated at a density of 4×10^4 cells/well in Packard black-walled, 96-well plates specially designed to discriminate fluorescence signals emanating from the various wells on the plate. The cells are incubated for 60 minutes at 37° C. in modified Dulbecco's PBS (D-PBS) containing 36 mg/L pyruvate and 1 g/L glucose and one of four calcium indicator dyes (Fluo-3™ AM, Fluo-4™ AM, Calcium Green™-1 AM, or Oregon Green™ 488 BAPTA-1 AM), each at a concentration of 4 μM. Plates are washed once with modified D-PBS and incubated for 10 minutes at 37° C. to remove residual dye from the cellular membrane. In addition, a series of washes with modified D-PBS is performed immediately prior to activation of the calcium response.
A calcium response is initiated by the addition of one or more candidate receptor agonist compounds, calcium ionophore A23187 (10 μM; positive control), or ATP (4 μM; positive control). Fluorescence is measured by Molecular Device's FLIPR with an argon laser (excitation at 488 nm). (See, e.g., Kuntzweiler et al., Drug Dev. Res., 1998, 44(1), 14-20). The F-stop for the detector camera was set at 2.5, and the length of exposure was 0.4 milliseconds. Basal fluorescence of cells was measured for 20 seconds prior to addition of candidate agonist, ATP, or A23187, and the basal fluorescence level was subtracted from the response signal. The calcium signal is measured for approximately 200 seconds, taking readings every two seconds. Calcium ionophore A23187 and ATP increase the calcium signal 200% above baseline levels. In general, activated GPCRs increase the calcium signal approximately 10-15% above baseline signal.
as §2

For another assay, the system named is DmGPCR4. Description: [35S]GTPγS binding assay, membranes of transfected CHO cells. Conditions: given in words. The class given is biochemical, Drosophila melanogaster. How it is done:
as §1, with “The membrane pellet was washed once with TEE, resuspended in 20 mM HEPES, pH 7.4, 100 mM NaCl, 10 mM MgCl2, 1 mM EDTA (assay buffer), aliquoted and frozen in liquid nitrogen. Membrane aliquots were stored at −70° C.” left out, “standard. […]” for “standard.”
(§5) Ligand-induced stimulation of [^35S]GTPγS binding was expressed as fold increase over the basal activity with no ligand added. Each treatment was run either in triplicate, or, on occasion, in duplicate, and the binding (cpm) was calculated as means +/− standard deviations. Dose-response curves for the receptor/ligand systems were analyzed using a non-linear least square SAS model, y=Bmax X/(Kd+X). Other dose-response curves were analyzed using Prism (GraphPad Software, Inc. San Diego, Calif.) and the following equation y=Bottom+(Top−Bottom)/(1+10^LogEC50-X). […]

Assay [1] relates to first Drosophila allatostatin receptor. As to conditions: via Gi/Go pathways; cited from earlier work.
The target of assay [2] is DmGPCR8. Put plainly: [35S]GTPγS binding assay, dose response. The class given is biochemical, Drosophila melanogaster. Conditions: DmGPCR8 in CHO-10001A cells; given in words. Here is the method: as §1, with “The membrane pellet was washed once with TEE, resuspended in 20 mM HEPES, pH 7.4, 100 mM NaCl, 10 mM MgCl2, 1 mM EDTA (assay buffer), aliquoted and frozen in liquid nitrogen. Membrane aliquots were stored at −70° C.” left out, “standard. […]” for “standard.”
as §5
Target sequence in this assay (as listed by the source): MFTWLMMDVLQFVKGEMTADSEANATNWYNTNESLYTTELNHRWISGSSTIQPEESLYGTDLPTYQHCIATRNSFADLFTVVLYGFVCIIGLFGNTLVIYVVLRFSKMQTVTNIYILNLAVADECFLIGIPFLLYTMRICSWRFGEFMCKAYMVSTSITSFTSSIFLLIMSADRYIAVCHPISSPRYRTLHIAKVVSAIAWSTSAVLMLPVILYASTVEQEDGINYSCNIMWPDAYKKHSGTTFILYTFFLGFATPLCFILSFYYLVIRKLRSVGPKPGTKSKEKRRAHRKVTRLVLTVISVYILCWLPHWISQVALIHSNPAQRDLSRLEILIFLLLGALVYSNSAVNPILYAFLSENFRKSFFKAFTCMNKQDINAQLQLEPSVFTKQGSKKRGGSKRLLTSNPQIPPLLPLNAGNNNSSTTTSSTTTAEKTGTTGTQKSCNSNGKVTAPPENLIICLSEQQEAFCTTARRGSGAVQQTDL

Assay [3] relates to DmGPCR8. Description: direct calcium mobilization assay (FLIPR). Type of assay: cell-based, Drosophila melanogaster. As to conditions: DmGPCR8 without chimeric G-protein. Here is the method:
as §3, §4
Target sequence in this assay (as listed by the source): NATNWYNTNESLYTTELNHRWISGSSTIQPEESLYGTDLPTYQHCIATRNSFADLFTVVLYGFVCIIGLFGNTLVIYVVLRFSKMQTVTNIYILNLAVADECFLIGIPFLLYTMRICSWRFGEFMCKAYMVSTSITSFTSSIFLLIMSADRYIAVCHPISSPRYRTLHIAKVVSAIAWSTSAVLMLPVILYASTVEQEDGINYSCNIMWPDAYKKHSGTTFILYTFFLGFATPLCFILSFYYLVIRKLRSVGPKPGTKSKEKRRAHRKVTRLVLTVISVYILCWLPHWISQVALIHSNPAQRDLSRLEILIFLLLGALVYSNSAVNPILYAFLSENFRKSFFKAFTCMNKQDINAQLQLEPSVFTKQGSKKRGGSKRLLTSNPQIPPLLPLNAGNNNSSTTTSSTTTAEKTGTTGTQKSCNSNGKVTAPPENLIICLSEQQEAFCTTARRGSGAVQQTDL

This is an account of results in patent US7364866B2, “Drosophila G protein coupled receptors, nucleic acids, and methods related to the same” (Pharmacia & Upjohn Company, priority 1999, dated 2008).

Non-standard residues stand in square brackets, D forms with d. No end group written: not given here. pGlu = O=C1CC[C@@H](C(=O)O)N1

Chain of DmGPCR7 (as listed by the source): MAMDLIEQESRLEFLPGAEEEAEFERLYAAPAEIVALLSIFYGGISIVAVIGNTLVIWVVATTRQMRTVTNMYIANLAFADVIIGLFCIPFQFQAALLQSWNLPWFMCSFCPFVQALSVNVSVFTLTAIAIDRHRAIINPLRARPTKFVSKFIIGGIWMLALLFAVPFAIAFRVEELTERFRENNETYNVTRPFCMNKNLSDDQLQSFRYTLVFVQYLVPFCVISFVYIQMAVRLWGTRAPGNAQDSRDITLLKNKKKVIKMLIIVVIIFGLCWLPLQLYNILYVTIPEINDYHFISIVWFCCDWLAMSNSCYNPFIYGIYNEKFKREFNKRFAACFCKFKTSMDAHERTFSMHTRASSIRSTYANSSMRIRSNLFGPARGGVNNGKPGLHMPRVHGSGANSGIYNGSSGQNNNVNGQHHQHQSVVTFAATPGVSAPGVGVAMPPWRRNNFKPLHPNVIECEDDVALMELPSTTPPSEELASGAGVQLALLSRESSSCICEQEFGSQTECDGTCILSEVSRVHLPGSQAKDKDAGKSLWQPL
Chain of DmGPCR9 (as listed by the source): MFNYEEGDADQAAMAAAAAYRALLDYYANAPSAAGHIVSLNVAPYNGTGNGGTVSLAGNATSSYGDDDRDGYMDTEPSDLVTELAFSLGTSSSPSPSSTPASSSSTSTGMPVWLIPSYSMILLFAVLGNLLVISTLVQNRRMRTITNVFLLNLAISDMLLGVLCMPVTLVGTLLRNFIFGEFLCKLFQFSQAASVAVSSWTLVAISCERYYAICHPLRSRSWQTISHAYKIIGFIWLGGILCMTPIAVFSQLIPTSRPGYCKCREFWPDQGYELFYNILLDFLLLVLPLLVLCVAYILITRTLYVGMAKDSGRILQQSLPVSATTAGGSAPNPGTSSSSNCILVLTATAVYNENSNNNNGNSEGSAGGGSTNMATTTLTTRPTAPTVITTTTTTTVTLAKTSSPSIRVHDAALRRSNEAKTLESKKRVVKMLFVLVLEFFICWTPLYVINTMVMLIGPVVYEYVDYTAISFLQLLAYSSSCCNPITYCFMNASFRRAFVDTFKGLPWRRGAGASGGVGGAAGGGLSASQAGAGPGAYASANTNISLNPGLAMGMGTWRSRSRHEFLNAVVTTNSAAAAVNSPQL
Chain of DmGPCR4 (as listed by the source): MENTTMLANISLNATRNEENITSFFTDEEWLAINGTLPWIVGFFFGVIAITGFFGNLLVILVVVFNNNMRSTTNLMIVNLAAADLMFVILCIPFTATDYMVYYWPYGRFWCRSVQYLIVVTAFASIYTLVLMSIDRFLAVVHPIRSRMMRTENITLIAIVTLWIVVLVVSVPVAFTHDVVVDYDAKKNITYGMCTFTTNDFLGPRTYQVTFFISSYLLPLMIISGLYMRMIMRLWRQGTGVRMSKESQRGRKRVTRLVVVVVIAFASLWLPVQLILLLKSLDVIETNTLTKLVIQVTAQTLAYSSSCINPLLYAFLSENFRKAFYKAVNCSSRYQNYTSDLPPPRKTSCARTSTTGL
Chain of DmGPCR5 (P30975 whole entry L70Q): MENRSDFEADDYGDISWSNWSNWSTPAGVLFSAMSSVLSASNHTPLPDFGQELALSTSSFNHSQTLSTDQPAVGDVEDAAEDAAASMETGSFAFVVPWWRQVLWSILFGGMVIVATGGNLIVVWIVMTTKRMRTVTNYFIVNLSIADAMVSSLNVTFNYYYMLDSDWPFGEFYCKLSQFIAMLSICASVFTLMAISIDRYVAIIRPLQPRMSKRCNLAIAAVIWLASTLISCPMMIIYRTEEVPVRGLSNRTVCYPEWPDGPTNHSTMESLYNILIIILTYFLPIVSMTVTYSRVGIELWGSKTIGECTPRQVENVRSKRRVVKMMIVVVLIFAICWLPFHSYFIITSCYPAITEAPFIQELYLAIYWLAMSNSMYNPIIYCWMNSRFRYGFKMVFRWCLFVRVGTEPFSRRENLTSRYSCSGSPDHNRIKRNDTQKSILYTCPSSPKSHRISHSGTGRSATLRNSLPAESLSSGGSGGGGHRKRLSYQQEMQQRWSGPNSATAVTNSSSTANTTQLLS

For APVNSFVGMR [DTK-4, APVNSFVGMR-NH2], the “EC50, stimulation of GTPγS binding” value at DmGPCR5 is listed as “low micromolar range”.

In the case of “FDDYGHLRF-NH2 [unsulfated counterpart of FDDY(SO3H)GHLRF-NH2]”, in the assay with DmGPCR9, the calcium signal entry is reported as “very weak calcium signal”.

NPFHSWG [Culekinin, NPFHSWGa]: in the assay on DmGPCR7, the “EC50, intracellular calcium release (FLIPR)” value is recorded as “picomoloar to subnanomolar range”.

For “NSVVLGKKQRFHSWGa (NSVVLGKKQRFHSWG-NH2) [DLK-1]”, in the assay with DmGPCR7, the “EC50, intracellular calcium release (FLIPR)” value is reported as “picomoloar to subnanomolar range”.

On to QRFHSWG [DLK-2a, QRFHSWGa], for which the “EC50, intracellular calcium release (FLIPR)” value in the assay on DmGPCR7 is reported as “picomoloar to subnanomolar range”.

On to “SRPYSFGL [drostatin-3, Ser-Arg-Pro-Tyr-Ser-Phe-Gly-Leu-NH2]”, for which, in the assay with DmGPCR4, the “EC50, GTPγS responses” value is on record as “low nanomolar range”. In addition, the “functional activation of the receptor” value in assay [1] is listed as “functionally activated”.

Take “[pGlu]VRFQCYFNPISCF-OH (cysteine pairing not given here) [AST-C]”: the “EC50, GTPγS-binding responses” value at DmGPCR8 [2] is reported as “low nanomolar range”. For the same substance, in the assay with DmGPCR8 [3], the “activity in direct calcium mobilization assay (FLIPR)” value is listed as “did not show any activity”.

With pGlu-RFHSWGa [DLK-2], the “EC50, intracellular calcium release (FLIPR)” value in the assay on DmGPCR7 is recorded as “picomoloar to subnanomolar range”.

For the substance pGlu-SSFHSWGa [LK-VI], in the assay with DmGPCR7, the “EC50, intracellular calcium release (FLIPR)” value was “picomoloar to subnanomolar range”.
